This note sets out measurements from PubChem BioAssay AID743341 (Broad Institute, 2014).

Results filed as inconclusive are left out. Calls of active or inactive are those of the source.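 The calls were made as follows: active = fitted curve of myotube length rescue reaches 40% at or below the top valid tested dose in every replicate test; inconclusive = replicate tests give mixed outcomes; inactive = every replicate test inactive, including effects in the opposite direction.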

A short description of the first assay: rescue of myotube length under simvastatin, confirmation, orthogonal assay for statin myotoxicity suppressor project, imaging, C2C12 myotubes, MHC immunostaining, dry powder (AID 743341). The conditions noted are these: C2C12 myotubes + simvastatin, MHC imaging tube length, 48 h; at 19.5 µM (top of the series).
In the case of `COc1ccc(S(=O)(=O)Nc2ccc3c(c2)CC(=O)N([C@H](C)CO)C[C@@H](C)[C@H](CN(C)CC2CCCCC2)O3)cc1`, the rescue of myotube length was -8.93% (inactive).
On to `CN1C(=O)c2cc(NC(=O)c3ccc(F)c(F)c3)ccc2OC[C@H]2O[C@@H](CC(=O)Nc3ccc4c(c3)COC4)CC[C@@H]21`, for which the rescue of myotube length is 12.6% (inactive).
Still for that read-out and setting: the same measure for `N#C[C@H]1[C@@H](c2ccc(-c3cccc(F)c3)cc2)[C@H](CO)N1C(=O)NC1CCCC1`: 8.46% (inactive); for `CCCNC(=O)N1[C@H](C#N)[C@@H](c2ccc(C3=CCCCC3)cc2)[C@@H]1CO`: 22.8% (inactive).
The same measure, in the same setting: the same measure for `CN(C)C(=O)c1cccc(-c2ccc([C@@H]3[C@@H](C#N)N(C(=O)C4CCCC4)[C@@H]3CO)cc2)c1`: 13.3% (inactive); for `C[C@@H]1CN([C@@H](C)CO)C(=O)c2cc(NS(=O)(=O)c3ccc(Cl)cc3)ccc2O[C@H]1CN(C)C(=O)Nc1cccc2ccccc12`: -1.68% (inactive); for `Cc1noc(C)c1S(=O)(=O)Nc1ccc2c(c1)CC(=O)N([C@H](C)CO)C[C@H](C)[C@@H](CN(C)Cc1ccc(C(F)(F)F)cc1)O2`: -1.01% (inactive).
Turning to `C[C@@H]1CN([C@H](C)CO)C(=O)Cc2cc(NS(=O)(=O)c3cn(C)cn3)ccc2O[C@@H]1CN(C)Cc1ccc(Cl)c(Cl)c1`, the rescue of myotube length is 24% (inactive).
The same measure, in the same setting: the same measure for `CCCNC(=O)N1[C@H](CO)[C@H](c2ccccc2)[C@@H]1C#N`: 1.19% (inactive); for `N#C[C@@H]1[C@@H](c2ccc(C#Cc3cccnc3)cc2)[C@@H](CO)N1C(=O)C1CCCC1`: 5.74% (inactive).
Same read-out and setting: the same measure for `C/C=C/c1ccc([C@H]2[C@@H](CO)N(C(=O)NC3CCCC3)[C@H]2C#N)cc1`: 12.4% (inactive); for `N#C[C@H]1[C@@H](c2ccc(-c3cccc(F)c3)cc2)[C@@H](CO)N1C(=O)NC1CCCC1`: -4.89% (inactive).
On the same count and under the same terms, the same measure for `N#C[C@H]1[C@H](c2ccc(C#Cc3ccc(F)cc3)cc2)[C@H](CO)N1c1nc(-c2ccccc2)cs1`: 25.1% (inactive); for `N#C[C@@H]1[C@@H](c2ccc(-c3cccc(F)c3)cc2)[C@@H](CO)N1C(=O)NC1CCCC1`: 3.2% (inactive); for `C[C@@H]1CN([C@H](C)CO)C(=O)Cc2cc(NC(=O)CCCCCC(=O)Nc3ccccc3N)ccc2O[C@@H]1CN(C)Cc1ccc(Oc2ccccc2)cc1`: -9.32% (inactive).
For the compound `Cc1ccc(S(=O)(=O)N(C)C[C@@H]2Oc3ccc(NS(=O)(=O)c4ccc(Cl)cc4)cc3C(=O)N([C@H](C)CO)C[C@@H]2C)cc1`, the rescue of myotube length is 3.15% (inactive).
Same read-out and setting: the same measure for `N#C[C@@H]1[C@@H](c2ccccc2-c2ccc(F)cc2)[C@H](CO)N1C(=O)NC1CCCC1`: 15.4% (inactive).

The assay is the same for the next values; noted with them: C2C12 myotubes + simvastatin, MHC imaging tube length, 48 h; at 21 µM (top of the series).
Take `N#C[C@@H]1[C@@H](c2ccc(C#CC3CCCC3)cc2)[C@H](CO)N1S(=O)(=O)c1ccccc1`: the rescue of myotube length was 4.55% (inactive).
Same read-out and setting: the same measure for `C[C@@H]1CN([C@@H](C)CO)C(=O)c2cc(NC(=O)Nc3cccc4ccccc34)ccc2O[C@@H]1CN(C)Cc1ccc(C(=O)Nc2ccccc2N)cc1`: 20.8% (inactive); for `Cc1noc(C)c1S(=O)(=O)Nc1ccc2c(c1)CC(=O)N([C@H](C)CO)C[C@@H](C)[C@@H](CN(C)Cc1ccc(-c3ccccc3)cc1)O2`: -14.9% (inactive); for `C[C@H]1CN([C@@H](C)CO)C(=O)Cc2cc(NS(=O)(=O)c3ccc(Cl)cc3)ccc2O[C@@H]1CN(C)CC1CCCCC1`: -32.7% (inactive).
In the case of `CC(C)CC#Cc1cnc2c(c1)C(=O)N([C@H](C)CO)C[C@H](C)[C@@H](CN(C)C(=O)Cc1ccccc1)O2`, the rescue of myotube length was -0.121% (inactive).
As to `N#C[C@@H]1[C@@H](c2ccccc2)[C@H](CO)N1S(=O)(=O)c1ccc(-c2ccccc2)cc1`, the rescue of myotube length was 13.9% (inactive).
